According to ChEMBL document CHEMBL1933058, “5-(2-amino-pyrimidin-4-yl)-1H-pyrrole and 2-(2-amino-pyrimidin-4-yl)-1,5,6,7-tetrahydro-pyrrolo[3,2-c]pyridin-4-one derivatives as new classes of selective and orally available Polo-like kinase 1 inhibitors” (Bioorg Med Chem Lett, 2012):
Converted amounts (≈) assume the structure as drawn. Values belong to the compound of their own block, whether it stands above or below them.

Tests used:
[1] = target: Serine/threonine-protein kinase PLK2 (Homo sapiens, UniProt Q9NYY3); test: Inhibition of PLK2
[2] = target: Serine/threonine-protein kinase PLK3 (Homo sapiens, UniProt Q9H4B4); test: Inhibition of PLK3
[3] = target: Cyclin-dependent kinase 2/cyclin A (Homo sapiens, UniProt P24941); test: Inhibition of CDK2/cyclin A; assay type: protein-complex assay
[4] = target: T1, Aurora kinase A (Homo sapiens, UniProt O14965); test: Inhibition of Aurora-A
T1 sequence (O14965 whole entry): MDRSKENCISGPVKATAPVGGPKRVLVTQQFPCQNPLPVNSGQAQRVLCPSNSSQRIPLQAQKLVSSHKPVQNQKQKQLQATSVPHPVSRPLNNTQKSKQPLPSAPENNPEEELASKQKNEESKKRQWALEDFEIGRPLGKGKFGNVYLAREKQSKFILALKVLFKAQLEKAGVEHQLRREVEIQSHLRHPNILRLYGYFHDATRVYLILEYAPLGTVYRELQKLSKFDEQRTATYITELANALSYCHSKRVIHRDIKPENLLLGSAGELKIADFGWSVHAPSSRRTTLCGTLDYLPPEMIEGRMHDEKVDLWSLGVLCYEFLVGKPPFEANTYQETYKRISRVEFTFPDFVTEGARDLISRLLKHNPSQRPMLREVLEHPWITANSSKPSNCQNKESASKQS

[5] = system: A2780; test: Antiproliferative activity against human A2780 cells; assay type: functional, cell-based
[6] = Inhibition of CK2
[7] = target: Tyrosine-protein kinase ABL1 (Homo sapiens, UniProt P00519); test: Inhibition of c-ABL
[8] = target: RAC-alpha serine/threonine-protein kinase (Homo sapiens, UniProt P31749); test: Inhibition of AKT1
[9] = target: Aurora kinase B (Homo sapiens, UniProt Q96GD4); test: Inhibition of Aurora-B
[10] = target: Protein-tyrosine kinase 6 (Homo sapiens, UniProt Q13882); test: Inhibition of BRK
[11] = target: Cell division cycle 7-related protein kinase (Homo sapiens, UniProt O00311); test: Inhibition of CDC7
[12] = target: Cyclin-dependent kinase 1/cyclin B1 (Homo sapiens, UniProt P06493); test: Inhibition of CDK1/cyclin B; assay type: protein-complex assay
[13] = target: Cyclin-dependent kinase 2/cyclin E1 (Homo sapiens, UniProt P24941); test: Inhibition of CDK2/cyclin E; assay type: protein-complex assay
[14] = target: Cyclin-dependent kinase 4/cyclin D1 (Homo sapiens, UniProt P11802); test: Inhibition of CDK4/cyclin D1; assay type: protein-complex assay
[15] = target: Cyclin-dependent kinase 5 activator 1 (Homo sapiens, UniProt Q15078); test: Inhibition of CDK5/P25
[16] = target: Serine/threonine-protein kinase Chk1 (Homo sapiens, UniProt O14757); test: Inhibition of CHK1
[17] = target: Epidermal growth factor receptor (Homo sapiens, UniProt P04626+P00533+Q15303+P21860); test: Inhibition of EGFR1; assay type: protein assay
[18] = target: Mitogen-activated protein kinase 1 (Homo sapiens, UniProt P28482); test: Inhibition of ERK2
[19] = target: Fibroblast growth factor receptor 1 (Homo sapiens, UniProt P11362); test: Inhibition of FGFR1
[20] = target: Glycogen synthase kinase-3 beta (Homo sapiens, UniProt P49841); test: Inhibition of GSK3-beta
[21] = target: Insulin-like growth factor 1 receptor (Homo sapiens, UniProt P08069); test: Inhibition of IGFR1
[22] = target: Inhibitor of nuclear factor kappa-B kinase subunit beta (Homo sapiens, UniProt O14920); test: Inhibition of IKK2
[23] = target: Insulin receptor (Homo sapiens, UniProt P06213); test: Inhibition of IR
[24] = target: Tyrosine-protein kinase JAK2 (Homo sapiens, UniProt O60674); test: Inhibition of JAK2
[25] = target: Mast/stem cell growth factor receptor Kit (Homo sapiens, UniProt P10721); test: Inhibition of KIT
[26] = target: Tyrosine-protein kinase Lck (Homo sapiens, UniProt P06239); test: Inhibition of LCK
[27] = target: MAP kinase-activated protein kinase 2 (Homo sapiens, UniProt P49137); test: Inhibition of MAP-KAPK2
[28] = target: Hepatocyte growth factor receptor (Homo sapiens, UniProt P08581); test: Inhibition of MET
[29] = target: Serine/threonine-protein kinase 26 (Homo sapiens, UniProt Q9P289); test: Inhibition of MST4
[30] = target: Serine/threonine-protein kinase Nek6 (Homo sapiens, UniProt Q9HC98); test: Inhibition of NEK6
[31] = Inhibition of NIM
[32] = target: Mitogen-activated protein kinase 14 (Homo sapiens, UniProt Q16539); test: Inhibition of P38alpha
[33] = target: Serine/threonine-protein kinase PAK 4 (Homo sapiens, UniProt O96013); test: Inhibition of PAK4
[34] = Inhibition of PDGFR
[35] = target: cAMP-dependent protein kinase catalytic subunit alpha (Homo sapiens, UniProt P17612); test: Inhibition of PKAalpha
[36] = target: Protein kinase C beta type (Homo sapiens, UniProt P05771); test: Inhibition of PKCbeta
[37] = target: Proto-oncogene tyrosine-protein kinase receptor Ret (Homo sapiens, UniProt P07949); test: Inhibition of RET
[38] = Inhibition of SULU1
[39] = target: High affinity nerve growth factor receptor (Homo sapiens, UniProt P04629); test: Inhibition of TRKA
[40] = target: Vascular endothelial growth factor receptor 2 (Homo sapiens, UniProt P35968); test: Inhibition of VEGFR2
[41] = target: Vascular endothelial growth factor receptor 3 (Homo sapiens, UniProt P35916); test: Inhibition of VEGFR3
[42] = system: A-375; test: Antiproliferative activity against human A375 cells; assay type: functional, cell-based
[43] = system: HCT-116; test: Antiproliferative activity against human HCT116 cells; assay type: functional, cell-based
[44] = system: LNCaP; test: Antiproliferative activity against human LNCAP cells; assay type: functional, cell-based
[45] = system: MDA-MB-468; test: Antiproliferative activity against human MDA-MB-468 cells; assay type: functional, cell-based
[46] = system: K562; test: Antiproliferative activity against human K562 cells; assay type: functional, cell-based
[47] = system: MOLM-13; test: Antiproliferative activity against human MOLM13 cells; assay type: functional, cell-based
[48] = system: MOLT-4; test: Antiproliferative activity against human MOLT4 cells; assay type: functional, cell-based
[49] = Antiproliferative activity against human SUP-M2 cells; assay type: functional, cell-based
[50] = system: Caco-2; test: Apparent permeability across human Caco2 cells; assay type: ADME, cell-based
[51] = Apparent permeability of the compound by PAMPA; assay type: ADME
[52] = Intrinsic clearance in rat hepatocytes at 1 uM; assay type: ADME, cell-based, Liver, Hepatocyte; settings: read-out: CLH
[53] = Intrinsic clearance in human liver microsomes at 1 uM; assay type: ADME, Microsome; settings: read-out: CLH
[54] = Solubility of the compound at pH 7; assay type: physicochemical; settings: buffer
[55] = Tmax in Nu/Nu Balb Harlan mouse at 10 mg/kg, po; assay type: ADME, organism-based; set-up: dose 10 mg/kg, route oral; settings: in vivo
[56] = target: Serine/threonine-protein kinase PLK1 (Homo sapiens, UniProt P53350); test: Inhibition of PLK1
Sequence of Serine/threonine-protein kinase PLK1 (P53350 whole entry): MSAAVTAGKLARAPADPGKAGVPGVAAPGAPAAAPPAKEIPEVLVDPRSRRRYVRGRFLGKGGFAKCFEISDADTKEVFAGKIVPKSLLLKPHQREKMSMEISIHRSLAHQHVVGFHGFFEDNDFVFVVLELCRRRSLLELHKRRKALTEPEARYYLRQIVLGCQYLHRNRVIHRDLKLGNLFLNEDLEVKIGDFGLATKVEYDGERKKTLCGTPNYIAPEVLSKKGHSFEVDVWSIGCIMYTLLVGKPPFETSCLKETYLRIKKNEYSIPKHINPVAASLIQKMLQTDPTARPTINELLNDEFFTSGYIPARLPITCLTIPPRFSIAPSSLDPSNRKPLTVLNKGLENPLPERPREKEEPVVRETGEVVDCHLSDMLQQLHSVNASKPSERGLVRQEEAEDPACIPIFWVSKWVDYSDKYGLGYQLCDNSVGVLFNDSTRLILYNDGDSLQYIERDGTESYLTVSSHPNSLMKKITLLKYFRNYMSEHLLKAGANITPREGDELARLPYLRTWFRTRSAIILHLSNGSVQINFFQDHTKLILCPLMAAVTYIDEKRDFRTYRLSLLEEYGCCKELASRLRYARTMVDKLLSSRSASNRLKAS

Sequence of Serine/threonine-protein kinase PLK3 (Q9H4B4 whole entry): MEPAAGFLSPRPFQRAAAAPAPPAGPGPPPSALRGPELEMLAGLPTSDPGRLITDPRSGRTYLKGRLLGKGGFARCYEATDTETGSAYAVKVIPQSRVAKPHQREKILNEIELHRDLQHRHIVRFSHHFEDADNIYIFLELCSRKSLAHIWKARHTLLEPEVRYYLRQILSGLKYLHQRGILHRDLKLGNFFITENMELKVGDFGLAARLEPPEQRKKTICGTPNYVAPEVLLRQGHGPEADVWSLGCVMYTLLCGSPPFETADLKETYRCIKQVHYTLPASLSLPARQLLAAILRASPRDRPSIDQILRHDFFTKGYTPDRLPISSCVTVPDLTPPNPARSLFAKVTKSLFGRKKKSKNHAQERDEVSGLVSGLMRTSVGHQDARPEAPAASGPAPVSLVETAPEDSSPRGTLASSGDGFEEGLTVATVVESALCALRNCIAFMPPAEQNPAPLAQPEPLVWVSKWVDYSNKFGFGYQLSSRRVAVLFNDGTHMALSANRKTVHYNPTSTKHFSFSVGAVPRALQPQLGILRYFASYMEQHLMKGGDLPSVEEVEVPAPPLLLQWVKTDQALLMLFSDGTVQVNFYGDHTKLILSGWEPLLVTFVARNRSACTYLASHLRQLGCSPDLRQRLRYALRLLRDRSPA
Sequence of Serine/threonine-protein kinase PLK2 (Q9NYY3 whole entry): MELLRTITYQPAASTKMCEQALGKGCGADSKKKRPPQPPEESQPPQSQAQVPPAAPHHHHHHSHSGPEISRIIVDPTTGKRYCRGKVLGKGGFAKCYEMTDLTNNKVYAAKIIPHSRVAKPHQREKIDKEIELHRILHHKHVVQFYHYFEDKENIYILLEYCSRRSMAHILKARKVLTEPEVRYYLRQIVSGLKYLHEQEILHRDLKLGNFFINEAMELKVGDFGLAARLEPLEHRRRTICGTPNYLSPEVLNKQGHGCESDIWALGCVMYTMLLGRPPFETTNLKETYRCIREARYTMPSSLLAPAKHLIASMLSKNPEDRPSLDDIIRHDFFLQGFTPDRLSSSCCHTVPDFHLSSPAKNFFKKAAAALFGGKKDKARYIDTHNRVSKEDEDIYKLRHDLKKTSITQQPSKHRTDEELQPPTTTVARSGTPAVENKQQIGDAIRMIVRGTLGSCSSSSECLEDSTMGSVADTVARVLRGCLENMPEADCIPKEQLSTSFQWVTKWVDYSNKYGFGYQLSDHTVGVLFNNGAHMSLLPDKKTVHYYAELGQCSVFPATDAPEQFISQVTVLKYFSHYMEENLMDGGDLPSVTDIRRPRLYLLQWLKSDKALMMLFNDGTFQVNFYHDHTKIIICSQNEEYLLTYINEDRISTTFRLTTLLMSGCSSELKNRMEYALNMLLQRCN
Sequence of Aurora kinase B (Q96GD4 whole entry): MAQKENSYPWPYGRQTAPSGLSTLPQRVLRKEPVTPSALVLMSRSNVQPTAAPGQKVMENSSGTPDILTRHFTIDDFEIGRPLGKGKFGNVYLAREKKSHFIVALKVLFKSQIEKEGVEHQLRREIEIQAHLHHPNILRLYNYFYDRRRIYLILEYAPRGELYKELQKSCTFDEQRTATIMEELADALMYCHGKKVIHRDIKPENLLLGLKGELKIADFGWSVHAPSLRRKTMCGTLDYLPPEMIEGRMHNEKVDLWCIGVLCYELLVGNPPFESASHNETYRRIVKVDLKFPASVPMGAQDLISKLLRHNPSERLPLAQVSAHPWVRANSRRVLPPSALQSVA
Sequence of Tyrosine-protein kinase Lck (P06239 whole entry): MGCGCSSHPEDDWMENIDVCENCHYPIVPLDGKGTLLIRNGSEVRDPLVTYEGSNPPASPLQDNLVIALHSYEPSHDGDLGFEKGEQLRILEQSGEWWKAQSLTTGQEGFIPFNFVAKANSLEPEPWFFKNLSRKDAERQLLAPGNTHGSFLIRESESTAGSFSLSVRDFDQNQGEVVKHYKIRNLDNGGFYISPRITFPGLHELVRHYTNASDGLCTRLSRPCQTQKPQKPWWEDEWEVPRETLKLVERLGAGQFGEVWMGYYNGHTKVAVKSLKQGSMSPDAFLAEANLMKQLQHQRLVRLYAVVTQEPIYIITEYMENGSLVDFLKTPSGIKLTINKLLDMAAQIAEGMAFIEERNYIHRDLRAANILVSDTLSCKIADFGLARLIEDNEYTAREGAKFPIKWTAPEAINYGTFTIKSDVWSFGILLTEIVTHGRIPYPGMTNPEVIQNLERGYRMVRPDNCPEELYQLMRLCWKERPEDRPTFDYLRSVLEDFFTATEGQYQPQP
Sequence of Cell division cycle 7-related protein kinase (O00311 whole entry): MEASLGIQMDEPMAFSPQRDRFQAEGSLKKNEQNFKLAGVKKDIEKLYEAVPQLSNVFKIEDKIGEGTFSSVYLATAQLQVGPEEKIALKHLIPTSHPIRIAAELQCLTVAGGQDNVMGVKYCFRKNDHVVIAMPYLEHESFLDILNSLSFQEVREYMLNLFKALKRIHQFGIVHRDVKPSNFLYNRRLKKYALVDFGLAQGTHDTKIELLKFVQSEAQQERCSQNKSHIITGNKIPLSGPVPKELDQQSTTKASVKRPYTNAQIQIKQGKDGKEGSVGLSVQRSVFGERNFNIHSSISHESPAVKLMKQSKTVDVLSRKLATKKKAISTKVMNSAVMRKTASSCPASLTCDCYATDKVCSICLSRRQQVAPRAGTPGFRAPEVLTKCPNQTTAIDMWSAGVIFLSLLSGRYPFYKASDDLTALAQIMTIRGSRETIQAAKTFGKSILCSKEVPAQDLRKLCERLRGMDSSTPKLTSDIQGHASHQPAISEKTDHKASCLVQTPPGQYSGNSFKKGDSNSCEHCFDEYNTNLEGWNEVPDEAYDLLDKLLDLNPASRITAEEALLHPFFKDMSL
Sequence of Cyclin-dependent kinase 4/cyclin D1 (P11802 whole entry): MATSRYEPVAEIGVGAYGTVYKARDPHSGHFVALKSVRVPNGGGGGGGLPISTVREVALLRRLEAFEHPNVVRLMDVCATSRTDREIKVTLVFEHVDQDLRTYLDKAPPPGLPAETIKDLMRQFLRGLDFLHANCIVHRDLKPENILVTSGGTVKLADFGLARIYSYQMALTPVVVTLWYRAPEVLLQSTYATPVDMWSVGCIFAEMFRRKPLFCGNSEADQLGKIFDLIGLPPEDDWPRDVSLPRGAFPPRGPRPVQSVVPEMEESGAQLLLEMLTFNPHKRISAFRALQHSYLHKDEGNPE
Sequence of Cyclin-dependent kinase 4/cyclin D1 (P24385 whole entry, further chain): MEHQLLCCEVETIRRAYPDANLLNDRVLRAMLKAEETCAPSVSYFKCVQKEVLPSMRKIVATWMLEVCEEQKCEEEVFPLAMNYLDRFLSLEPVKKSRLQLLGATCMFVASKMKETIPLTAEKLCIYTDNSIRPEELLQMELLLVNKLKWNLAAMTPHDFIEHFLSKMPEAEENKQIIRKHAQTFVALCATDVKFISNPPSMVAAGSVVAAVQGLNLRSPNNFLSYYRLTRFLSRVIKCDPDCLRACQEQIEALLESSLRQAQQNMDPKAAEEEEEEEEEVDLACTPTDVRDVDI
Sequence of Serine/threonine-protein kinase Chk1 (O14757 whole entry): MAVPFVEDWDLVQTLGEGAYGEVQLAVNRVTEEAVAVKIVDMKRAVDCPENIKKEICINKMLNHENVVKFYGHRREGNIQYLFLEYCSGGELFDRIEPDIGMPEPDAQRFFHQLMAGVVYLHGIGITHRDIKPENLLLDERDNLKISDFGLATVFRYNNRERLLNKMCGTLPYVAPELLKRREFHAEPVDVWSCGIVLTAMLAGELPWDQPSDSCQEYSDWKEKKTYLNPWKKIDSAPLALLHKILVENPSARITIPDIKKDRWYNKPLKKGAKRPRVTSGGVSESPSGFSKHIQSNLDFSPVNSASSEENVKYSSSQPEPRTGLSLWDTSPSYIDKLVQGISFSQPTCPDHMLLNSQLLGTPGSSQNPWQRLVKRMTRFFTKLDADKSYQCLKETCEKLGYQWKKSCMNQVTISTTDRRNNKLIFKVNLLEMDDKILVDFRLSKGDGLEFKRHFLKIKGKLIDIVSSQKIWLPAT
Sequence of Protein-tyrosine kinase 6 (Q13882 whole entry): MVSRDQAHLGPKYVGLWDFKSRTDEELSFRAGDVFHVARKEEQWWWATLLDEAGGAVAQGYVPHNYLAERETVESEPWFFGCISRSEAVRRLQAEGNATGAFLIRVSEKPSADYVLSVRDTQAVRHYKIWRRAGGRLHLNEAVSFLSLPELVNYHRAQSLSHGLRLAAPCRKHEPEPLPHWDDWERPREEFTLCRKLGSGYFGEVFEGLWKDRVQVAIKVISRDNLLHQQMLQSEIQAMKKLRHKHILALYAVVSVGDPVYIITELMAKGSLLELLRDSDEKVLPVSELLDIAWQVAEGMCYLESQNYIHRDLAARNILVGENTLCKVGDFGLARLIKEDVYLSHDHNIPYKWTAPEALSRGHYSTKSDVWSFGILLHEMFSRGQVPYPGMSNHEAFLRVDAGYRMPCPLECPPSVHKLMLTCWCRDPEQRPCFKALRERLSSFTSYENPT

IC50 [1]: > 10 µM
IC50 [2]: > 10 µM
IC50 [3]: > 10 µM
IC50 [4]: > 10 µM
IC50 [5]: 0.36 µM
IC50 [6]: 0.951 µM
IC50 [7]: > 10 µM
IC50 [8]: > 10 µM
IC50 [9]: > 10 µM
IC50 [10]: > 10 µM
IC50 [11]: > 10 µM
IC50 [12]: > 10 µM
IC50 [13]: > 10 µM
IC50 [14]: > 10 µM
IC50 [15]: > 10 µM
IC50 [16]: > 10 µM
IC50 [17]: > 10 µM
IC50 [18]: > 10 µM
IC50 [19]: > 10 µM
IC50 [20]: > 10 µM
IC50 [21]: > 10 µM
IC50 [22]: > 10 µM
IC50 [23]: > 10 µM
IC50 [24]: > 10 µM
IC50 [25]: > 10 µM
IC50 [26]: > 10 µM
IC50 [27]: > 10 µM
IC50 [28]: > 10 µM
IC50 [29]: > 10 µM
IC50 [30]: > 10 µM
IC50 [31]: > 10 µM
IC50 [32]: > 10 µM
IC50 [33]: > 10 µM
IC50 [34]: > 10 µM
IC50 [35]: > 10 µM
IC50 [36]: > 10 µM
IC50 [37]: > 10 µM
IC50 [38]: > 10 µM
IC50 [39]: > 10 µM
IC50 [40]: > 10 µM
IC50 [41]: > 10 µM
IC50 [42]: 0.386 µM
IC50 [43]: 0.52 µM
IC50 [44]: 0.28 µM
IC50 [45]: 0.624 µM
IC50 [46]: 0.59 µM
IC50 [47]: 0.201 µM
IC50 [48]: 0.253 µM
Papp [50]: permeable
Papp [51]: 50 ×10⁻⁶ cm/s
CLint scaled at 1 µM [52]: 408 mL/min/kg
CLint scaled at 1 µM [53]: 14.9 mL/min/kg
solubility [54]: 174 µM (≈ 82.7 µg/mL)
Tmax [55]: 30 min
SMILES: CN1CCN(c2ccc(OC(F)(F)F)c(Nc3nccc(-c4cc(C(N)=O)cn4C)n3)c2)CC1
IC50 [49]: 0.647 µM

IC50 [56]: > 10 µM
IC50 [1]: > 10 µM
IC50 [2]: > 10 µM
IC50 [3]: > 10 µM
IC50 [4]: > 10 µM
IC50 [5]: 4.51 µM
SMILES: Cn1cc(C(N)=O)cc1-c1ccnc(Nc2cc(N3CCN(C(=O)OC(C)(C)C)CC3)ccc2OC(F)(F)F)n1

IC50 [56]: 0.018 µM
IC50 [1]: > 10 µM
IC50 [2]: > 10 µM
IC50 [3]: > 10 µM
IC50 [4]: > 10 µM
IC50 [5]: 0.109 µM
SMILES: CN1CCN(c2ccc(OC(F)(F)F)c(Nc3nccc(-c4cc(C(N)=O)cn4CC(F)(F)F)n3)c2)CC1
